The record followed here is publication PMC5218480 (PLoS ONE, 2017).

The experiment relates to MV-4-11 cells. Briefly: Gene expression microarray analysis (Affymetrix PrimeView) and GSEA. It counts as cell-based, human. Details: RFU PODN (11730768_x_at) / Fold change /veh PODN (11730768_x_at) / RFU LINC00158 (11744669_a_at) / Fold change /veh LINC00158 (11744669_a_at) / RFU DUSP10 (11751237_a_at) / Fold change /veh DUSP10 (11751237_a_at) / RFU ID3 (11757404_x_at) / Fold change /veh ID3 (11757404_x_at) / RFU PLEKHG5 (11737974_s_at) / Fold change /veh PLEKHG5 (11737974_s_at) / RFU LRRC4B (11730491_at) / Fold change /veh LRRC4B (11730491_at) / RFU GIMAP4 (11747438_a_at) / Fold change /veh GIMAP4 (11747438_a_at) / RFU KRT8 (11758183_x_at) / Fold change /veh KRT8 (11758183_x_at) / RFU CNN1 (11734310_a_at) / Fold change /veh CNN1 (11734310_a_at) / RFU VPS37D (11726825_at) / Fold change /veh VPS37D (11726825_at) / RFU C10orf10 (11716522_x_at) / Fold change /veh C10orf10 (11716522_x_at) / RFU KIR2DL2 /// KIR2DL4 /// KIR2DL5A /// KIR2DL5B /// KIR2DS1 /// KIR2DS2 /// KIR2DS3 /// KIR2DS4 /// KIR3DL3 /// KIR3DL3 /// KIR3DS1 (11738374_at) / Fold change /veh KIR2DL2 /// KIR2DL4 /// KIR2DL5A /// KIR2DL5B /// KIR2DS1 /// KIR2DS2 /// KIR2DS3 /// KIR2DS4 /// KIR3DL3 /// KIR3DL3 /// KIR3DS1 (11738374_at) / RFU C1QL1 (11718748_at) / Fold change /veh C1QL1 (11718748_at) / RFU TMPRSS4 (11747572_a_at) / Fold change /veh TMPRSS4 (11747572_a_at) / RFU HAMP (11756126_x_at) / Fold change /veh HAMP (11756126_x_at) / RFU RNFT2 (11725882_a_at) / Fold change /veh RNFT2 (11725882_a_at) / RFU NR4A2 (11747474_a_at) / Fold change /veh NR4A2 (11747474_a_at) / RFU ABCC12 (11746883_a_at) / Fold change /veh ABCC12 (11746883_a_at) / RFU TMEM136 (11760407_x_at) / Fold change /veh TMEM136 (11760407_x_at) / RFU CLDN22 /// WWC2 (11732394_at) / Fold change /veh CLDN22 /// WWC2 (11732394_at) / RFU HLA-DPB1 (11760878_x_at) / Fold change /veh HLA-DPB1 (11760878_x_at) / RFU SPINT1 (11716480_a_at) / Fold change /veh SPINT1 (11716480_a_at) / RFU GAP43 (11754022_s_at) / Fold change /veh GAP43 (11754022_s_at) / RFU A4GNT (11735810_at) / Fold change /veh A4GNT (11735810_at) / RFU PRB3 (11715151_x_at) / Fold change /veh PRB3 (11715151_x_at) / RFU TUBB4B (11761932_at) / Fold change /veh TUBB4B (11761932_at) / RFU CAPN14 (11732068_a_at) / Fold change /veh CAPN14 (11732068_a_at) / RFU TMCC2 (11721928_a_at) / Fold change /veh TMCC2 (11721928_a_at) / RFU IRGQ (11745062_a_at) / Fold change /veh IRGQ (11745062_a_at) / RFU FAM174B (11720279_a_at) / Fold change /veh FAM174B (11720279_a_at) / RFU TMPRSS4 (11748680_a_at) / Fold change /veh TMPRSS4 (11748680_a_at) / RFU FAM212B (11763350_a_at) / Fold change /veh FAM212B (11763350_a_at) / RFU PLEKHG5 (11743358_a_at) / Fold change /veh PLEKHG5 (11743358_a_at) / RFU ZSCAN30 (11745921_a_at) / Fold change /veh ZSCAN30 (11745921_a_at) / RFU CMKLR1 (11741424_a_at) / Fold change /veh CMKLR1 (11741424_a_at) / RFU LOC101060620 /// MAPK8IP1 (11723275_at) / Fold change /veh LOC101060620 /// MAPK8IP1 (11723275_at) / RFU SPTSSB (11747773_x_at) / Fold change /veh SPTSSB (11747773_x_at) / RFU PRSS12 (11739890_at) / Fold change /veh PRSS12 (11739890_at) / RFU BIN1 (11741810_x_at) / Fold change /veh BIN1 (11741810_x_at) / RFU WNT11 (11732464_a_at) / Fold change /veh WNT11 (11732464_a_at) / RFU C10orf10 (11716521_a_at) / Fold change /veh C10orf10 (11716521_a_at) / RFU C5orf56 (11738089_at) / Fold change /veh C5orf56 (11738089_at) / RFU CYB561 (11721691_x_at) / Fold change /veh CYB561 (11721691_x_at) / RFU ANKRD19P (11752326_a_at) / Fold change /veh ANKRD19P (11752326_a_at) / RFU OR2T12 /// OR2T33 /// OR2T8 (11738714_s_at) / Fold change /veh OR2T12 /// OR2T33 /// OR2T8 (11738714_s_at) / RFU VCAN (11748164_a_at) / Fold change /veh VCAN (11748164_a_at) / RFU JSRP1 (11732532_at) / Fold change /veh JSRP1 (11732532_at) / RFU KRTAP10-11 (11738290_x_at) / Fold change /veh KRTAP10-11 (11738290_x_at) / RFU MYO3A (11730013_a_at) / Fold change /veh MYO3A (11730013_a_at) / RFU EBF3 (11725865_a_at) / Fold change /veh EBF3 (11725865_a_at) / RFU CAMK2N1 (11719241_x_at) / Fold change /veh CAMK2N1 (11719241_x_at) / RFU C5orf56 (11738088_a_at) / Fold change /veh C5orf56 (11738088_a_at) / RFU OLFML3 (11715873_a_at) / Fold change /veh OLFML3 (11715873_a_at) / RFU LOC100653217 /// NTM (11731650_a_at) / Fold change /veh LOC100653217 /// NTM (11731650_a_at) / RFU MAPK11 (11762145_a_at) / Fold change /veh MAPK11 (11762145_a_at) / RFU FIZ1 (11724087_x_at) / Fold change /veh FIZ1 (11724087_x_at) / RFU OASL (11726364_x_at) / Fold change /veh OASL (11726364_x_at) / RFU SOX15 (11748057_x_at) / Fold change /veh SOX15 (11748057_x_at) / RFU CD79A (11719716_a_at) / Fold change /veh CD79A (11719716_a_at) / RFU HIST1H1D (11736915_at) / Fold change /veh HIST1H1D (11736915_at) / RFU CASKIN2 (11723855_a_at) / Fold change /veh CASKIN2 (11723855_a_at) / RFU LOC730098 (11760151_x_at) / Fold change /veh LOC730098 (11760151_x_at) / RFU OR4N2 (11742367_at) / Fold change /veh OR4N2 (11742367_at) / RFU PRRT2 (11749266_a_at) / Fold change /veh PRRT2 (11749266_a_at) / RFU SNX32 (11753110_a_at) / Fold change /veh SNX32 (11753110_a_at) / RFU CDHR5 (11726645_a_at) / Fold change /veh CDHR5 (11726645_a_at) / RFU RCAN1 (11760418_a_at) / Fold change /veh RCAN1 (11760418_a_at) / RFU FAM167A (11723789_a_at) / Fold change /veh FAM167A (11723789_a_at) / RFU FAM26E (11764081_at) / Fold change /veh FAM26E (11764081_at) / RFU ISYNA1 (11749810_s_at) / Fold change /veh ISYNA1 (11749810_s_at) / RFU ACY1 (11761880_at) / Fold change /veh ACY1 (11761880_at) / RFU 11764098_at / Fold change /veh 11764098_at / RFU SAMD14 (11745864_x_at) / Fold change /veh SAMD14 (11745864_x_at) / RFU NPB (11741838_a_at) / Fold change /veh NPB (11741838_a_at) / RFU TMPRSS6 (11731388_a_at) / Fold change /veh TMPRSS6 (11731388_a_at) / RFU KRTAP10-2 (11738614_at) / Fold change /veh KRTAP10-2 (11738614_at) / RFU ARHGAP8 /// PRR5-ARHGAP8 (11727945_x_at) / Fold change /veh ARHGAP8 /// PRR5-ARHGAP8 (11727945_x_at) / RFU KRTAP5-7 /// NADSYN1 (11734609_at) / Fold change /veh KRTAP5-7 /// NADSYN1 (11734609_at) / RFU RASL12 (11751679_a_at) / Fold change /veh RASL12 (11751679_a_at) / RFU CDKN2B (11736163_a_at) / Fold change /veh CDKN2B (11736163_a_at) / RFU PRF1 (11729649_at) / Fold change /veh PRF1 (11729649_at) / RFU, ZNF638 /// ZNF638-IT1 / Fold change vs veh, ZNF638 /// ZNF638-IT1 / RFU, PANK3 / Fold change vs veh, PANK3 / RFU, SH3YL1 / Fold change vs veh, SH3YL1 / RFU, ZEB2 / Fold change vs veh, ZEB2 / RFU, NRIP1 / Fold change vs veh, NRIP1 / RFU, PTTG1IP / Fold change vs veh, PTTG1IP / RFU, CAPN2 / Fold change vs veh, CAPN2 / RFU, MED14 / Fold change vs veh, MED14 / RFU, SNORA58 / Fold change vs veh, SNORA58 / RFU, C1orf63 / Fold change vs veh, C1orf63 / RFU, LRRFIP1 / Fold change vs veh, LRRFIP1 / RFU, NDUFAF7 / Fold change vs veh, NDUFAF7 / RFU, SLC12A2 / Fold change vs veh, SLC12A2 / RFU, IBTK / Fold change vs veh, IBTK / RFU, ESF1 / Fold change vs veh, ESF1 / Fold change vs veh, TMEM50B / RFU, TAOK1 / Fold change vs veh, TAOK1 / RFU, ACBD3 / Fold change vs veh, ACBD3 / RFU, TMA16 / Fold change vs veh, TMA16 / RFU, RWDD3 / Fold change vs veh, RWDD3 / RFU, BCAT1 / Fold change vs veh, BCAT1 / RFU, EDEM3 / Fold change vs veh, EDEM3 / RFU, TMEM33 / Fold change vs veh, TMEM33 / RFU, WDR75 / Fold change vs veh, WDR75 / RFU, AHCTF1 / Fold change vs veh, AHCTF1 / RFU, TFRC / Fold change vs veh, TFRC / RFU, ZDHHC17 / Fold change vs veh, ZDHHC17 / RFU, NOM1 / Fold change vs veh, NOM1 / RFU, ARL8B / Fold change vs veh, ARL8B / RFU, ZBTB11 / Fold change vs veh, ZBTB11 / RFU, TAMM41 / Fold change vs veh, TAMM41 / RFU, KIAA1704 /// LOC100996395 / Fold change vs veh, KIAA1704 /// LOC100996395 / RFU, ING1 / Fold change vs veh, ING1 / RFU, TRMT61B / Fold change vs veh, TRMT61B / RFU, FUBP3 / Fold change vs veh, FUBP3 / RFU, TP53 / Fold change vs veh, TP53 / RFU, TNKS2 / Fold change vs veh, TNKS2 / RFU, ZFP14 / Fold change vs veh, ZFP14 / RFU, ACTR2 / Fold change vs veh, ACTR2 / RFU, PPP3R1 / Fold change vs veh, PPP3R1 / RFU, PIK3R1 / Fold change vs veh, PIK3R1 / RFU, HNRNPA1 / Fold change vs veh, HNRNPA1 / RFU, RNF170 / Fold change vs veh, RNF170 / RFU, ZNF28 / Fold change vs veh, ZNF28 / RFU, RNGTT / Fold change vs veh, RNGTT / RFU, OGT / Fold change vs veh, OGT / RFU, BRD1 / Fold change vs veh, BRD1 / RFU, MARS / Fold change vs veh, MARS / RFU, ZNF655 / Fold change vs veh, ZNF655 / RFU, FAHD1 / Fold change vs veh, FAHD1 / RFU, BDP1 / Fold change vs veh, BDP1 / RFU, LRRCC1 / Fold change vs veh, LRRCC1 / RFU, ARID1A / Fold change vs veh, ARID1A / RFU, ZNF146 / Fold change vs veh, ZNF146 / RFU, ZNF330 / Fold change vs veh, ZNF330 / RFU, GPN3 / Fold change vs veh, GPN3 / RFU, C9orf123 / Fold change vs veh, C9orf123 / RFU, N4BP2L2 / Fold change vs veh, N4BP2L2 / RFU, ARFIP1 / Fold change vs veh, ARFIP1 / RFU, FAM179B / Fold change vs veh, FAM179B / RFU, BCL10 / Fold change vs veh, BCL10 / RFU, UHRF1BP1L / Fold change vs veh, UHRF1BP1L / RFU, BET1 / Fold change vs veh, BET1 / RFU, CNOT2 / Fold change vs veh, CNOT2 / RFU, ZNF268 / Fold change vs veh, ZNF268 / Fold change vs veh, ZNF507 / RFU, DGCR2 / Fold change vs veh, DGCR2 / RFU, WDSUB1 / Fold change vs veh, WDSUB1 / Fold change vs veh, HSP90B1 /// MIR3652 / RFU, ADSS / Fold change vs veh, ADSS / RFU, GK / Fold change vs veh, GK / RFU, ZNF148 / Fold change vs veh, ZNF148 / RFU, TAF9 / Fold change vs veh, TAF9 / RFU, SLC1A5 / Fold change vs veh, SLC1A5 / RFU, SLMO2 / Fold change vs veh, SLMO2 / RFU, ABCC4 / Fold change vs veh, ABCC4 / RFU, LOC101060439 /// RAP1B / Fold change vs veh, LOC101060439 /// RAP1B / RFU, RFX7 / Fold change vs veh, RFX7 / RFU, GTPBP10 / Fold change vs veh, GTPBP10 / RFU, CNEP1R1 / Fold change vs veh, CNEP1R1 / RFU, BIVM-ERCC5 /// ERCC5 / Fold change vs veh, BIVM-ERCC5 /// ERCC5 / RFU, ILF3 / Fold change vs veh, ILF3 / RFU 11762660_at / Fold change /veh 11762660_at / RFU VCAN (11757783_s_at) / Fold change /veh VCAN (11757783_s_at) / RFU DDX43 (11728927_at) / Fold change /veh DDX43 (11728927_at) / RFU KRT8 (11758188_x_at) / Fold change /veh KRT8 (11758188_x_at) / RFU NKD1 (11759106_at) / Fold change /veh NKD1 (11759106_at) / RFU SRD5A1 (11742802_a_at) / Fold change /veh SRD5A1 (11742802_a_at) / RFU TPSAB1 /// TPSB2 (11721975_s_at) / Fold change /veh TPSAB1 /// TPSB2 (11721975_s_at) / RFU GSTM3 (11746129_a_at) / Fold change /veh GSTM3 (11746129_a_at) / RFU IL23R (11737362_x_at) / Fold change /veh IL23R (11737362_x_at) / RFU TMEM51 (11727254_a_at) / Fold change /veh TMEM51 (11727254_a_at) / RFU PIWIL2 (11732686_x_at) / Fold change /veh PIWIL2 (11732686_x_at) / RFU ORM1 (11744905_x_at) / Fold change /veh ORM1 (11744905_x_at) / RFU CCDC152 (11743942_at) / Fold change /veh CCDC152 (11743942_at) / RFU ECM1 (11717891_a_at) / Fold change /veh ECM1 (11717891_a_at) / RFU IL23R (11748794_a_at) / Fold change /veh IL23R (11748794_a_at) / RFU TNFAIP8L3 (11732012_x_at) / Fold change /veh TNFAIP8L3 (11732012_x_at) / RFU MBOAT4 (11741988_at) / Fold change /veh MBOAT4 (11741988_at) / RFU 11764193_at / Fold change /veh 11764193_at / RFU TMEM53 (11763286_at) / Fold change /veh TMEM53 (11763286_at) / RFU MAGEB2 (11727129_at) / Fold change /veh MAGEB2 (11727129_at) / RFU TMEM200A (11744735_a_at) / Fold change /veh TMEM200A (11744735_a_at) / RFU CCDC152 (11751479_a_at) / Fold change /veh CCDC152 (11751479_a_at) / RFU FAM211A (11726209_a_at) / Fold change /veh FAM211A (11726209_a_at) / RFU RGS16 (11746705_a_at) / Fold change /veh RGS16 (11746705_a_at) / RFU VCAN (11755009_s_at) / Fold change /veh VCAN (11755009_s_at) / RFU RHOB (11743442_s_at) / Fold change /veh RHOB (11743442_s_at) / RFU RGS16 (11720943_a_at) / Fold change /veh RGS16 (11720943_a_at) / RFU RGS16 (11720944_at) / Fold change /veh RGS16 (11720944_at) / RFU, VPS4B / Fold change vs veh, VPS4B / RFU, CREB1 / Fold change vs veh, CREB1 / RFU, DNAJC13 / Fold change vs veh, DNAJC13 / RFU, GNAQ / Fold change vs veh, GNAQ / RFU, CDK5R1 / Fold change vs veh, CDK5R1 / RFU, ZRANB3 / Fold change vs veh, ZRANB3 / RFU, CUL4A / Fold change vs veh, CUL4A / RFU, CCNY / Fold change vs veh, CCNY / RFU, UFL1 / Fold change vs veh, UFL1 / RFU, COG3 / Fold change vs veh, COG3 / RFU, DIAPH2 / Fold change vs veh, DIAPH2 / RFU, SKA2 / Fold change vs veh, SKA2 / RFU, AFF3 / Fold change vs veh, AFF3 / RFU, LMF1 / Fold change vs veh, LMF1 / RFU, IPO11 / Fold change vs veh, IPO11 / RFU, DFFB / Fold change vs veh, DFFB / RFU, FOXP1 / Fold change vs veh, FOXP1 / RFU, CARD8 / Fold change vs veh, CARD8 / RFU, STRN3 / Fold change vs veh, STRN3 / RFU, ADK / Fold change vs veh, ADK / RFU, RASSF2 / Fold change vs veh, RASSF2 / RFU, WIPF1 / Fold change vs veh, WIPF1 / RFU, LARP1B / Fold change vs veh, LARP1B / RFU, RASA1 / Fold change vs veh, RASA1 / RFU, RB1 / Fold change vs veh, RB1 / RFU, PPFIA1 / Fold change vs veh, PPFIA1 / RFU, MAT2A / Fold change vs veh, MAT2A / RFU, CCT5 / Fold change vs veh, CCT5 / RFU, WDR92 / Fold change vs veh, WDR92 / RFU, CUX1 / Fold change vs veh, CUX1 / RFU, TTC7A / Fold change vs veh, TTC7A / RFU, TMEM135 / Fold change vs veh, TMEM135 / RFU, DEPTOR / Fold change vs veh, DEPTOR / RFU, CPM / Fold change vs veh, CPM / RFU, DNAJB6 / Fold change vs veh, DNAJB6 / RFU, CACNA2D3 / Fold change vs veh, CACNA2D3 / RFU, DTX4 / Fold change vs veh, DTX4 / RFU, TFCP2 / Fold change vs veh, TFCP2 / RFU, GMCL1 /// GMCL1P1 / Fold change vs veh, GMCL1 /// GMCL1P1 / RFU, AEBP2 / Fold change vs veh, AEBP2 / RFU, SNHG1 /// SNORD22 /// SNORD25 /// SNORD26 /// SNORD27 /// SNORD28 /// SNORD29 /// SNORD31 / Fold change vs veh, SNHG1 /// SNORD22 /// SNORD25 /// SNORD26 /// SNORD27 /// SNORD28 /// SNORD29 /// SNORD31 / Fold change (Aza/veh), C12orf56 (ProbeSet 11735607_a_at) / Fold change (ACY-1035/veh), C12orf56 (ProbeSet 11735607_a_at) / Fold change (Aza/veh), FGFR1OP (ProbeSet 11751329_s_at) / Fold change (ACY-1035/veh), FGFR1OP (ProbeSet 11751329_s_at) / Fold change (Aza/veh), VPS36 (ProbeSet 11739960_a_at) / Fold change (ACY-1035/veh), VPS36 (ProbeSet 11739960_a_at) / RFU SYPL1 (11715823_x_at) / Fold change /veh SYPL1 (11715823_x_at) / RFU IGFBP7 (11715501_s_at) / Fold change /veh IGFBP7 (11715501_s_at) / RFU REEP3 (11722064_at) / Fold change /veh REEP3 (11722064_at) / RFU IGLL1 (11728026_x_at) / Fold change /veh IGLL1 (11728026_x_at): dose or concentration left out as unconfirmed. Particulars: ProbeSet 11753234_a_at; LIST B.

Consider `Nc1ncn([C@@H]2O[C@H](CO)[C@@H](O)[C@H]2O)c(=O)n1` [azacitidine], for which the “RFU, TAMM41” value turned out to be 52.96 RFU.
